Reference: patent US8541585B2, “N-acyl cyclic amine derivative or pharmaceutically acceptable salt thereof” (Dainippon Sumitomo Pharma Co., Ltd., priority 2010, dated 2013)

Experiments:
human 5-HT6 receptor = biological target: T1, human 5-HT6 receptor (Homo sapiens, UniProt P50406); assay: Serotonin 5-HT6 receptor binding assay ([3H]-clozapine); conditions: 100 nM test drug; [3H]-clozapine 2 nM; human 5-HT6 receptor-expressing CHO cell membrane; read-out: BINDING INHIBITION RATE (%) 5HT6 100 nM
T1 construct: expressed in transfected cells; host or cells: CHO cells (membrane preparation)
T1 sequence (P50406 whole entry): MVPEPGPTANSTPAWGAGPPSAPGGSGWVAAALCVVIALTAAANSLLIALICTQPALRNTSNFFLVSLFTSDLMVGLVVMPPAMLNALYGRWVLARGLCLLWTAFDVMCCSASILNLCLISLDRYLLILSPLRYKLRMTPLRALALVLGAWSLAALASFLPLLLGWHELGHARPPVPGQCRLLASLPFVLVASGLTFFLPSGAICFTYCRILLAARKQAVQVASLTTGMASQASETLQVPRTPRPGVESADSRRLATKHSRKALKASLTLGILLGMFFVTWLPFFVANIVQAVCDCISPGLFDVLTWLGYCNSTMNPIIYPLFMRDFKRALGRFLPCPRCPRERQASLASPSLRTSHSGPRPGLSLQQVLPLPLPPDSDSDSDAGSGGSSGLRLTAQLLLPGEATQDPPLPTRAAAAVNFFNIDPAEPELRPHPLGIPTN
Procedure: (3) Serotonin 5-HT6 Receptor Binding Assay
After a reaction in a total volume of 200 μL of 50 mM Tris-HCl (pH=7.6), 4 mM CaCl2, and 0.5 mM EDTA buffer solution containing 50 μL of [^3H]-clozapine (final concentration 2 nM), 1 μL of test drug in DMSO, and 149 μL of human 5-HT6 receptor-expressing CHO cell membrane sample, human 5-HT6 receptor binding activity of [^3H]-clozapine was measured. The reaction solution let stand for 40 minutes at room temperature, and then it was quickly added on a glass fiber filter plate (Multiscreen FB, Millipore inc.) coated with 0.3% polyethyleneimine (PEI) and filtered under reduced pressure. The glass fiber filter was washed with 200 μL of ice-cooled 50 mM Tris-HCl (pH=7.6) twice, repeatedly filtered under reduced pressure, and then transferred to a vial containing 4 mL of Ecoscint A (National Diagnostics inc.). The residual radioactivity on the glass fiber filter was measured by a liquid scintillation counter. Nonspecific binding was measured in the presence of 10 μM of SB-258585, and [^3H]-clozapine binding inhibition rate in the presence of 100 nM of test drug was determined.

human D2L receptor = human D2L receptor (Homo sapiens, UniProt P14416); assay: Dopamine D2L receptor binding assay ([3H]-spiperone); conditions: 10 nM test drug; [3H]-spiperone 0.5 nM; human D2L receptor-expressing CHO cell membrane; read-out: BINDING INHIBITION RATE (%) D2L 10 nM
Chain of human D2L receptor (P14416 whole entry): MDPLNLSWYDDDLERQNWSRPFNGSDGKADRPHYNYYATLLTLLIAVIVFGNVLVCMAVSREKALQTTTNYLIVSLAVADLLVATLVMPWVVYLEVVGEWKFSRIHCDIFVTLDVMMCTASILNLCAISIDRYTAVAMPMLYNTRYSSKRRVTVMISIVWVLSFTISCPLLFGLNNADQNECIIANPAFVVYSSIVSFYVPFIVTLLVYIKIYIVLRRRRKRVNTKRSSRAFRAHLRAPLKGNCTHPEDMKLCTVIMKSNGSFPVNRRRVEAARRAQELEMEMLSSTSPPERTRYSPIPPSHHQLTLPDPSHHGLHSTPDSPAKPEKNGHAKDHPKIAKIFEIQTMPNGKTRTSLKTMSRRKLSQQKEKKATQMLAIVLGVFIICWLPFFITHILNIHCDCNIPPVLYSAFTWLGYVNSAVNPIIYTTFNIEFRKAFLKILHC
Procedure: (1) Dopamine D2L Receptor Binding Assay
D2L receptor binding assay was performed in reference to a method described by Hirose et al. (Japan. J. Pharmacol., 53, 321-329, 1990). After a reaction in a total volume of 200 μL of 50 mM Tris-HCl (pH=7.6) buffer solution containing 50 μL of [^3H]-spiperone (final concentration 0.5 nM), 1 μL of test drug in DMSO, and 149 μL of human D2L receptor-expressing CHO cell membrane sample, human D2L receptor binding activity of [^3H]-spiperone was measured. The reaction solution let stand for 60 minutes at room temperature, and then it was quickly added on a glass fiber filter plate (Multiscreen FB, Millipore inc.) coated with 0.3% polyethyleneimine (PEI) and filtered under reduced pressure. The glass fiber filter was washed with 200 μL of ice-cooled 50 mM Tris-HCl (pH=7.6) twice, repeatedly filtered under reduced pressure, and then transferred to a vial containing 4 mL of Ecoscint A (National Diagnostics inc.). The residual radioactivity on the glass fiber filter was measured by a liquid scintillation counter. Nonspecific binding was measured in the presence of 10 μM of spiperone, and [^3H]-spiperone binding inhibition rate in the presence of 10 nM of test drug was determined. The larger binding inhibition rate (%) means that test drug has the higher binding affinity for human D2L receptor.

human α1D receptor = biological target: T2, human α1D receptor (Homo sapiens, UniProt P25100); assay: Adrenaline α1D receptor binding assay ([3H]-prazosin); conditions: 100 nM test drug; [3H]-prazosin 0.6 nM; human α1D receptor-expressing CHO cell membrane; read-out: BINDING INHIBITION RATE (%) α1D 100 nM
T2 construct: expressed in transfected cells; host or cells: CHO cells (membrane preparation)
T2 sequence (P25100 1-572): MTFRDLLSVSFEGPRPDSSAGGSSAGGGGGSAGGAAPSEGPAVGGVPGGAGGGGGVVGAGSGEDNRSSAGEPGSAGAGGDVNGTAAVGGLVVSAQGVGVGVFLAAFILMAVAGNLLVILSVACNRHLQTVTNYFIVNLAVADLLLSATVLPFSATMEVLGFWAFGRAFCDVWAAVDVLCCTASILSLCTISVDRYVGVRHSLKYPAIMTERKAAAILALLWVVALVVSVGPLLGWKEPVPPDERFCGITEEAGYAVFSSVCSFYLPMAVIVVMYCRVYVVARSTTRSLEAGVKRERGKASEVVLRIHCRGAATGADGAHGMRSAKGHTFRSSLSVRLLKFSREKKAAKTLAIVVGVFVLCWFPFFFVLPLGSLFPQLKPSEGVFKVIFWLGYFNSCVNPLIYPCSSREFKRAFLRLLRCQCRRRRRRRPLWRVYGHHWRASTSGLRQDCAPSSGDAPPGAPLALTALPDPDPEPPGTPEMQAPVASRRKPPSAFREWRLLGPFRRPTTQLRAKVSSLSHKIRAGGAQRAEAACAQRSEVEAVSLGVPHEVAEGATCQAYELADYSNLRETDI
Procedure: (4) Adrenaline α1D Receptor Binding Assay
After a reaction in a total volume of 200 μL of 50 mM Tris-HCl (pH=7.6) buffer solution containing 50 μL of [^3H]-prazosin (final concentration 0.6 nM), 1 μL of test drug in DMSO, and 149 μL of human α1D receptor-expressing CHO cell membrane sample, human α1D receptor binding activity of [^3H]-prazosin was measured. The reaction solution let stand for 30 minutes at room temperature, and then it was quickly added on a glass fiber filter plate (Multiscreen FB, Millipore inc.) coated with 0.3% polyethyleneimine (PEI) and filtered under reduced pressure. The glass fiber filter was washed with 200 μL of ice-cooled 50 mM Tris-HCl (pH=7.6) twice, repeatedly filtered under reduced pressure, and then transferred to a vial containing 4 mL of Ecoscint A (National Diagnostics inc.). The residual radioactivity on the glass fiber filter was measured by a liquid scintillation counter. Nonspecific binding was measured in the presence of 1 μM of prazosin, and [^3H]-prazosin binding inhibition rate in the presence of 100 nM of test drug was determined.

human 5-HT2A receptor = biological target: T3, human 5-HT2A receptor (Homo sapiens, UniProt P28223); assay: Serotonin 5-HT2A receptor binding assay ([3H]-ketanserin); conditions: [3H]-ketanserin 1 nM, human 5-HT2A receptor-expressing CHO cell membrane; for inhibition at 0.001 µM: 1 nM test drug, read-out: BINDING INHIBITION RATE (%) 5HT2A 1 nM; for inhibition at 0.01 µM: 10 nM test drug, read-out: BINDING INHIBITION RATE (%) 5HT2A 10 nM
T3 construct: expressed in transfected cells; host or cells: CHO cells (membrane preparation)
T3 sequence (P28223 whole entry): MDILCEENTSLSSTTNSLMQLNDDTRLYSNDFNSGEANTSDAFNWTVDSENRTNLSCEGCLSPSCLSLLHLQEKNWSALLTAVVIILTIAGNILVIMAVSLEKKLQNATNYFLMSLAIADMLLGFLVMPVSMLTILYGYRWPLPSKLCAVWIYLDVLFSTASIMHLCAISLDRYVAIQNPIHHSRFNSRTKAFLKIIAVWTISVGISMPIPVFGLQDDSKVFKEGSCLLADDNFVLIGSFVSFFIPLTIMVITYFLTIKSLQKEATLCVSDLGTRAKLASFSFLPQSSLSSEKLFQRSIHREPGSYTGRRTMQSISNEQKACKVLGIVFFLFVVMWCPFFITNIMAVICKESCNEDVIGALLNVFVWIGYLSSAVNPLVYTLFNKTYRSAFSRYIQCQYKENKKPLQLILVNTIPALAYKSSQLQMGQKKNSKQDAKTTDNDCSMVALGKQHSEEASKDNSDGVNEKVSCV
Procedure: (2) Serotonin 5-HT2A Receptor Binding Assay
5-HT2A receptor binding assay was performed in reference to a method described by Hirose et al. (Japan. J. Pharmacol., 53, 321-329, 1990). After a reaction in a total volume of 200 μL of 50 mM Tris-HCl (pH=7.6) buffer solution containing 50 μL of [^3H]-ketanserin (final concentration 1 nM), 1 μL of test drug in DMSO, and 149 μL of human 5-HT2A receptor-expressing CHO cell membrane sample, human 5-HT2A receptor binding activity of [^3H]-ketanserin was measured. The reaction solution let stand for 15 minutes at 37° C., and then it was quickly added on a glass fiber filter plate (Multiscreen FB, Millipore inc.) coated with 0.05% Brij 35 and filtered under reduced pressure. The glass fiber filter was washed with 200 μL of ice-cooled 50 mM Tris-HCl (pH=7.6) twice, repeatedly filtered under reduced pressure, and then transferred to a vial containing 4 mL of Ecoscint A (National Diagnostics inc.). The residual radioactivity on the glass fiber filter was measured by a liquid scintillation counter. Nonspecific binding was measured in the presence of 10 μM of MDL-100907, and [^3H]-ketanserin binding inhibition rate in the presence of 1 nM or 10 nM of test drug was determined.

O=C(c1ccc(F)cc1)C1CCN(CC[C@@H]2CCCN2C(=O)c2cc(-c3ccccc3)n[nH]2)CC1 [Example 51]
inhibition at 0.1 µM (human 5-HT6 receptor): 95%
inhibition at 0.01 µM (human D2L receptor): 81%
inhibition at 0.1 µM (human α1D receptor): 51%
inhibition at 0.001 µM (human 5-HT2A receptor): 76%

COc1ccc2[nH]c(C(=O)N3C[C@@](C)(O)C[C@H]3CCN3CCC(c4c[nH]c5ccccc45)CC3)cc2c1 [Example 38]
inhibition at 0.1 µM (human 5-HT6 receptor): 86%
inhibition at 0.01 µM (human D2L receptor): 72%
inhibition at 0.1 µM (human α1D receptor): 67%
inhibition at 0.01 µM (human 5-HT2A receptor): 97%

COc1ccc2[nH]c(C(=O)N3CCCC[C@H]3CCN3CCC(c4coc5ccccc45)CC3)cc2c1 [Example 26]
inhibition at 0.1 µM (human 5-HT6 receptor): 65%
inhibition at 0.01 µM (human D2L receptor): 77%
inhibition at 0.1 µM (human α1D receptor): 67%
inhibition at 0.001 µM (human 5-HT2A receptor): 77%
inhibition at 0.01 µM (human 5-HT2A receptor): 98%

Cc1ccc2cc(C(=O)N3C[C@H](O)CC[C@H]3CCN3CCC(c4c[nH]c5ccccc45)CC3)[nH]c2c1 [Example 39]
inhibition at 0.1 µM (human 5-HT6 receptor): 86%
inhibition at 0.01 µM (human D2L receptor): 77%
inhibition at 0.1 µM (human α1D receptor): 69%
inhibition at 0.001 µM (human 5-HT2A receptor): 70%

Cc1ccc2cc(C(=O)N3CCC[C@H]3CCN3CCC(C(=O)c4ccc(F)cc4)CC3)[nH]c2c1 [Example 1, (S)-(2-(2-(4-(4-Fluorobenzoyl)piperidin-1-yl)ethyl)pyrrolidin-1-yl)(6-methyl-1H-indol-2-yl)methanone]
inhibition at 0.1 µM (human 5-HT6 receptor): 96%
inhibition at 0.01 µM (human D2L receptor): 91%
inhibition at 0.1 µM (human α1D receptor): 68%
inhibition at 0.001 µM (human 5-HT2A receptor): 73%

Cc1ccc2cc(C(=O)N3CCC[C@H]3CCN3CCC(c4c[nH]c5cc(F)ccc45)CC3)[nH]c2c1 [Example 5]
inhibition at 0.1 µM (human 5-HT6 receptor): 98%
inhibition at 0.01 µM (human D2L receptor): 83%
inhibition at 0.1 µM (human α1D receptor): 70%
inhibition at 0.001 µM (human 5-HT2A receptor): 72%

COc1ccc2cc(C(=O)N3CCCC[C@H]3CCN3CCC(c4c[nH]c5ccccc45)CC3)[nH]c2c1 [Example 31]
inhibition at 0.1 µM (human 5-HT6 receptor): 88%
inhibition at 0.01 µM (human D2L receptor): 78%
inhibition at 0.1 µM (human α1D receptor): 54%
inhibition at 0.01 µM (human 5-HT2A receptor): 96%

COc1c(F)ccc2[nH]c(C(=O)N3CCC[C@H]3CCN3CCC(C(=O)c4ccc(F)cc4)CC3)cc12 [Example 162, (S)-(5-Fluoro-4-methoxy-1H-indol-2-yl)(2-(2-(4-(4-fluorobenzoyl)piperidin-1-yl)ethyl)pyrrolidin-1-yl)methanone]
inhibition at 0.1 µM (human 5-HT6 receptor): 93%
inhibition at 0.01 µM (human D2L receptor): 86%
inhibition at 0.1 µM (human α1D receptor): 79%
inhibition at 0.001 µM (human 5-HT2A receptor): 84%

O=C(c1nc2cc(Cl)ccc2[nH]1)N1CCCC[C@H]1CCN1CCC(c2c[nH]c3ccccc23)CC1 [Example 58]
inhibition at 0.1 µM (human 5-HT6 receptor): 98%
inhibition at 0.01 µM (human D2L receptor): 57%
inhibition at 0.1 µM (human α1D receptor): 97%
inhibition at 0.001 µM (human 5-HT2A receptor): 74%
inhibition at 0.01 µM (human 5-HT2A receptor): 91%
